# Columns and labels:
# [1] = test system: Leishmania donovani; test: Antileishmanial activity against promastigote form of Leishmania donovani MHOH/IN/1983/AG83 infected BALB/c mouse assessed as liver weight at 10 mg/kg, ip administered 1 month post-infection 2 times per week for 30 days (reference value: 1,746 +/- 56 mg); format: functional; conditions: route intraperitoneal
# [2] = test system: Mus musculus; test: Toxicity against BALB/c Mus musculus (mouse) assessed as SGPT level at 10 mg/kg, ip administered 2 times per week for 30 days (reference value: 28 +/- 5 IU/l); format: organism-based; set-up: dose 10 mg/kg, route intraperitoneal; conditions: in vivo, 720 h
# [3] = test system: Mus musculus; test: Toxicity against BALB/c Mus musculus (mouse) assessed as blood urea level at 10 mg/kg, ip administered 2 times per week for 30 days (reference value: 29 +/- 6 mg/dl); format: organism-based; set-up: dose 10 mg/kg, route intraperitoneal; conditions: in vivo, 720 h
# [4] = Toxicity against BALB/c Mus musculus (mouse) peritoneal macrophages assessed as concentration required for cell lysis after 48 hr; format: cell-based, Peritoneal macrophage cell; conditions: read-out: Activity
# [5] = test system: Leishmania donovani; test: microbe, parasite or virus in culture; conditions: MHOH/IN/1983/AG83, 48 h
# Description: Antileishmanial activity against amastigote form of Leishmania donovani MHOH/IN/1983/AG83 infected BALB/c mouse peritoneal macrophages after 48 hr by Geimsa staining method
# [6] = test system: Mus musculus; test: Toxicity against BALB/c Mus musculus (mouse) assessed as SGOT level at 10 mg/kg, ip administered 2 times per week for 30 days (reference value: 71 +/- 4 IU/l); format: organism-based; set-up: dose 10 mg/kg, route intraperitoneal; conditions: in vivo, 720 h
# [7] = test system: Leishmania donovani; test: Antileishmanial activity against promastigote form of Leishmania donovani MHOH/IN/1983/AG83 infected BALB/c mouse assessed as spleen weight at 10 mg/kg, ip administered 1 month post-infection 2 times per week for 30 days (reference value: 509 +/- 25 mg); format: functional; conditions: route intraperitoneal
# [8] = test system: Leishmania donovani; test: Antileishmanial activity against promastigote form of Leishmania donovani MHOH/IN/1983/AG83 after 2 hr by MTT assay; format: functional, organism-based
# [9] = test system: Leishmania donovani; test: Antileishmanial activity against promastigote form of Leishmania donovani MHOH/IN/1983/AG83 infected BALB/c mouse assessed as liver weight at 4 mg/kg, ip administered 1 month post-infection 2 times per week for 30 days (reference value: 1,746 +/- 56 mg); format: functional; conditions: route intraperitoneal
# [10] = test system: Leishmania donovani; test: Antileishmanial activity against promastigote form of Leishmania donovani MHOH/IN/1983/AG83 infected in BALB/c mouse assessed as reduction in parasite burden in spleen at 4.5 mg/kg, i.p. administered 1 month post-infection 2 times per week for 30 days relative to control; format: functional; set-up: scale not given: the % may be the effect or the level left; conditions: route intraperitoneal
# [11] = test system: Leishmania donovani; test: Antileishmanial activity against amastigote form of Leishmania donovani MHOH/IN/1983/AG83 infected BALB/c mouse peritoneal macrophages at 10 ug/ml after 48 hr by Geimsa staining method relative to control; format: functional
# [12] = test system: Leishmania donovani; test: Antileishmanial activity against promastigote form of Leishmania donovani MHOH/IN/1983/AG83 infected BALB/c mouse assessed as reduction in parasite burden in liver at 4.5 mg/kg, ip administered 1 month post-infection 2 times per week for 30 days relative to control; format: functional; set-up: scale not given: the % may be the effect or the level left; conditions: route intraperitoneal
# [13] = test system: Mus musculus; test: Toxicity against BALB/c Mus musculus (mouse) assessed as blood urea level at 4 mg/kg, ip administered 2 times per week for 30 days (reference value: 29 +/- 6 mg/dl); format: organism-based; set-up: dose 4 mg/kg, route intraperitoneal; conditions: in vivo, 720 h
# [14] = test system: Mus musculus; test: Toxicity against BALB/c Mus musculus (mouse) assessed as SGOT level at 4 mg/kg, ip administered 2 times per week for 30 days (reference value: 71 +/- 4 IU/l); format: organism-based; set-up: dose 4 mg/kg, route intraperitoneal; conditions: in vivo, 720 h
# [15] = test system: Leishmania donovani; test: Antileishmanial activity against promastigote form of Leishmania donovani MHOH/IN/1983/AG83 infected in BALB/c mouse assessed as reduction in parasite burden in spleen at 10 mg/kg, i.p. administered 1 month post-infection 2 times per week for 30 days relative to control; format: functional; set-up: scale not given: the % may be the effect or the level left; conditions: route intraperitoneal
# [16] = test system: Mus musculus; test: Toxicity against BALB/c Mus musculus (mouse) assessed as SGPT level at 4 mg/kg, ip administered 2 times per week for 30 days (reference value: 28 +/- 5 IU/l); format: organism-based; set-up: dose 4 mg/kg, route intraperitoneal; conditions: in vivo, 720 h
# [17] = test system: Leishmania donovani; test: Antileishmanial activity against promastigote form of Leishmania donovani MHOH/IN/1983/AG83 infected in BALB/c mouse assessed as reduction in parasite burden in liver at 10 mg/kg, ip administered 1 month post-infection 2 times per week for 30 days relative to control; format: functional; set-up: scale not given: the % may be the effect or the level left; conditions: route intraperitoneal
# [18] = test system: Leishmania donovani; test: Antileishmanial activity against promastigote form of Leishmania donovani MHOH/IN/1983/AG83 infected BALB/c mouse assessed as spleen weight at 4 mg/kg, ip administered 1 month post-infection 2 times per week for 30 days (reference value: 509 +/- 25 mg); format: functional; conditions: route intraperitoneal
# [19] = test system: Leishmania donovani; test: Antileishmanial activity against promastigote form of Leishmania donovani MHOH/IN/1983/AG83 infected BALB/c mouse assessed as reduction in parasite burden in spleen at 250 mg/kg, ip administered 1 month post-infection 2 times per week for 30 days relative to control; format: functional, organism-based; set-up: dose 250 mg/kg; scale not given: the % may be the effect or the level left
# [20] = test system: Leishmania donovani; test: Antileishmanial activity against promastigote form of Leishmania donovani MHOH/IN/1983/AG83 infected BALB/c mouse assessed as spleen weight at 250 mg/kg, ip administered 1 month post-infection 2 times per week for 30 days (reference value: 509 +/- 25 mg); format: functional, organism-based; set-up: dose 250 mg/kg
# [21] = test system: Leishmania donovani; test: Antileishmanial activity against promastigote form of Leishmania donovani MHOH/IN/1983/AG83 infected BALB/c mouse assessed as reduction in parasite burden in liver at 250 mg/kg, ip administered 1 month post-infection 2 times per week for 30 days relative to control; format: functional, organism-based; set-up: dose 250 mg/kg; scale not given: the % may be the effect or the level left
# [22] = test system: Leishmania donovani; test: Antileishmanial activity against promastigote form of Leishmania donovani MHOH/IN/1983/AG83 infected BALB/c mouse assessed as liver weight at 250 mg/kg, ip administered 1 month post-infection 2 times per week for 30 days (reference value: 1,746 +/- 56 mg); format: functional, organism-based; set-up: dose 250 mg/kg
# [23] = Leishmania donovani, MHOH/IN/1983/AG83, 2 h, read-out: IC50
Molecule,Activity [2],Activity [3],MCC at 48 h [4],IC50 [5],Activity [6],Activity [7],"IC50 [8, 23]",further results
O=C1CN(c2ccccc2)C(=O)CN1c1ccccc1,34 IU/L,32 mg/dL,> 30 µg/mL,1.6 µg/mL,74 IU/L,166 mg,1.4 µg/mL,Activity [1]: 999 mg
O=C1CN(c2cccc(Cl)c2)C(=O)CN1c1cccc(Cl)c1,28 IU/L,29 mg/dL,> 25 µg/mL,0.53 µg/mL,67 IU/L,87 mg,1 µg/mL,Activity [9]: 1134 mg; Activity [10]: 67.97%; Activity [11]: 92.19%; Activity [12]: 69.73%; Activity [13]: 28 mg/dL; Activity [14]: 69 IU/L; Activity [15]: 91.35%; Activity [16]: 29 IU/L; Activity [17]: 94.75%; Activity [18]: 155 mg
O=C1CN(c2cccc(Cl)c2Cl)C(=O)CN1c1cccc(Cl)c1Cl,,,> 50 µg/mL,4.3 µg/mL,,,2.2 µg/mL,
CC(=O)c1cccc(N2CC(=O)N(c3cccc(C(C)=O)c3)CC2=O)c1,,,> 50 µg/mL,2 µg/mL,,,3.4 µg/mL,
O=C1CN(c2cc(Cl)ccc2Cl)C(=O)CN1c1cc(Cl)ccc1Cl,,,> 60 µg/mL,6.6 µg/mL,,,2.6 µg/mL,
O=C1CN(c2ccccc2Cl)C(=O)CN1c1ccccc1Cl,28 IU/L,30 mg/dL,> 25 µg/mL,0.61 µg/mL,72 IU/L,106 mg,1.02 µg/mL,Activity [1]: 976 mg; Activity [11]: 92%; Activity [15]: 71.81%; Activity [17]: 80.37%
O=C1CN(C2CCCCC2)C(=O)CN1C1CCCCC1,30 IU/L,31 mg/dL,> 50 µg/mL,1.1 µg/mL,73 IU/L,139 mg,0.7 µg/mL,Activity [1]: 1076 mg; Activity [11]: 84.66%; Activity [15]: 80.95%; Activity [17]: 81.74%
COc1ccc(N2CC(=O)N(c3ccc(OC)cc3)CC2=O)cc1,,,> 60 µg/mL,2.2 µg/mL,,,21.8 µg/mL,
O=C1CN(c2ccc(Cl)cc2Cl)C(=O)CN1c1ccc(Cl)cc1Cl,,,> 35 µg/mL,6.4 µg/mL,,,2.9 µg/mL,
O=C1CN(c2c(Cl)cc(Cl)cc2Cl)C(=O)CN1c1c(Cl)cc(Cl)cc1Cl,,,> 70 µg/mL,> 10 µg/mL,,,9.4 µg/mL,
N=C(N)c1ccc(OCCCCCOc2ccc(C(=N)N)cc2)cc1 [PENTAMIDINE],,,> 90 µg/mL,2.8 µg/mL,,,2.1 µg/mL,
SODIUM ANTIMONY GLUCONATE,,,,,,,,Activity [19]: 60.2%; Activity [20]: 303 mg; Activity [21]: 57.7%; Activity [22]: 1320 mg
COc1ccc(Cl)cc1N1CC(=O)N(c2cc(Cl)ccc2OC)CC1=O,,,> 100 µg/mL,,,,,IC50 [8]: Not Active
Cc1ccc(N2CC(=O)N(c3ccc(C)cc3)CC2=O)cc1,33 IU/L,34 mg/dL,> 40 µg/mL,1.8 µg/mL,75 IU/L,184 mg,1.1 µg/mL,Activity [1]: 1127 mg
C[C@@H]1[C@H](O)[C@@H](C)/C=C/C=C/C=C/C=C/C=C/C=C/C=C/[C@H](O[C@@H]2O[C@H](C)[C@@H](O)[C@H](N)[C@@H]2O)C[C@@H]2O[C@](O)(C[C@@H](O)C[C@@H](O)[C@H](O)CC[C@@H](O)C[C@@H](O)CC(=O)O[C@H]1C)C[C@H](O)[C@H]2C(=O)O [AMPHOTERICIN B],,,> 4 µg/mL,0.1 µg/mL,,,,

# Source: ChEMBL document CHEMBL3046404, “The cytotoxic effects of diketopiperaizes against Leishmania donovani promastigotes and amastigotes” (Med Chem Res, 2013)
